Among the data in PubChem BioAssay (NCI) are TGI and GI50 values, retold here.

Where “and” joins values, the source holds several entries; their conditions need not be identical. Equal entries are not always repeated.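 In this assay, cells in 96-well plates receive the compound at five concentrations for 48 hours. Endpoints are linearly interpolated between the surrounding concentrations. The concentration for 50% growth inhibition is given as GI50. TGI: total growth inhibition.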 Some results are limits rather than exact numbers.

Holding throughout (assay): NCI anticancer screen, dose series, 48 h
Assay [1] deals with LOX IMVI melanoma.
Assay [2] deals with IGROV1 ovarian.
In assay [3] the test system is SW-620 colon.
In assay [4] the test system is SK-MEL-28 melanoma.
For assay [5], the system named is UACC-62 melanoma.
Assay [6] relates to OVCAR-8 ovarian.
The subject of assay [7] is SF-268 CNS.
For assay [8], the system named is HOP-92 NSCLC.
Assay [9] has as its system SN12C renal.
The subject of assay [10] is A549 NSCLC.

Regarding `Fc1ccc(C(OCCN2CC3CC2CN3)c2ccc(F)cc2)cc1` (configuration not stated), the TGI is greater than 100 µM in [1]; greater than 100 µM in [2]; greater than 100 µM in assay [3]; 52.3 µM in [4]; 37.3 µM in assay [5]; greater than 100 µM in [6]. Besides, the TGI in assay [7] and in [8] was greater than 100 µM each time.
In the case of `O=S(=O)(c1ccc2ccccc2c1)N1CCN(S(=O)(=O)c2ccc3ccccc3c2)CC1`, the TGI in assay [1], in assay [9], in assay [2], in assay [3], in [4] and in assay [5] was greater than 100 µM throughout. Besides, the TGI in [10], in assay [6], in [7] and in [8] was greater than 100 µM in each case.
On to `CO/C(=N\N=C(/c1ccccc1)C(F)(F)F)c1ccncc1`, for which the TGI in [9], in [2], in [4], in assay [5], in assay [6] and in assay [8] was greater than 100 µM each time.
As for `CCN(CC)C(=S)SSCCO`, the GI50 in assay [1] was 19.9 µM; in assay [9], 17.4 µM; in [3] it was 13.6 µM; in [4], 15.8 µM; in assay [5] it was 15.3 µM; in assay [10], 79.9 µM. Further, the GI50 in assay [6] was 19.3 µM; in assay [7], 19 µM; in [8], 14.6 µM. In addition, the TGI was 46.3 µM in [1]; 32.2 µM in [9]; 26.5 µM in [3]; 29.3 µM in [4]; 29.2 µM in assay [5]; greater than 100 µM in [10]. Besides, the TGI was found to be 38.7 µM in [6], 37.1 µM in [7] and 27.7 µM in assay [8].
As to `Cc1cc(C)c(S(=O)(=O)N(CCCN)OCCCN)c(C)c1`, the TGI in [1], in assay [9], in [2], in assay [3], in assay [4] and in assay [5] was greater than 100 µM in each case. Moreover, the TGI in assay [10], in [6], in [7] and in [8] was greater than 100 µM in each case.
For `O=C([O-])C1([n+]2c(-c3ccccc3)cc(-c3ccccc3)cc2-c2ccccc2)CC1`, the TGI was greater than 100 µM in [1]; greater than 100 µM in [9]; greater than 100 µM in assay [2]; greater than 100 µM in [3]; greater than 100 µM in assay [4]; 67.7 µM in assay [5]. Also, the TGI in [10], in assay [6], in assay [7] and in assay [8] was greater than 100 µM each time.
Regarding `CC(=O)Nc1cc(/C=C\C(=O)N2CC(CCl)c3c2cc(N)c2ccccc32)n(C)n1` (configuration not stated), the TGI is greater than 100 µM in assay [2]; greater than 100 µM in assay [3]; 0.0382 µM and 0.177 µM in [4]; 0.0284 µM in assay [5]; 0.211 µM in [7]; greater than 100 µM in assay [8].
As for `N=C(N)c1ccc(N=Nc2c(O)ccc3cc(O)ccc23)cc1`, the TGI in assay [2], in assay [3], in [4], in assay [5], in [10] and in assay [6] was greater than 100 µM throughout. Further, the TGI in [7] and in [8] was greater than 100 µM throughout.
Consider `CC1=NN(C(=O)c2ccc(C)cc2)C(=O)C1N=Nc1ccccc1C(=O)O` (configuration not stated), for which the TGI in assay [1], in assay [9], in assay [2], in [3], in assay [4] and in assay [5] was greater than 100 µM throughout. In addition, the TGI in [10], in assay [6], in assay [7] and in [8] was greater than 100 µM each time.
Consider `CCOC(=O)[C@H]1Nc2c(cccc2[N+](=O)[O-])C2c3ccccc3CC21` (some centres not stated), for which the TGI in assay [1], in [9], in [2], in [3], in [4] and in assay [5] was greater than 100 µM in each case. Besides, the TGI in assay [10], in [6] and in assay [7] was greater than 100 µM in each case.
For the molecule `Cc1ccc2oc3c(ccc(=O)n3C)c(=O)c2c1`, the TGI in assay [1], in assay [9], in assay [2], in assay [3], in [4] and in [5] was greater than 100 µM in each case. The TGI in assay [10], in assay [6], in assay [7] and in assay [8] was greater than 100 µM in each case.
As to `O=c1[nH]c(=S)[nH]c2c(C3OC(CO)C(O)C3O)nsc12` (configuration not stated), the TGI in assay [1], in assay [9], in assay [2], in assay [3], in assay [4] and in assay [5] was greater than 100 µM each time. The TGI in [10], in assay [6], in assay [7] and in [8] was greater than 100 µM each time.
Consider `N/C(=N\N=C/c1cc([N+](=O)[O-])cc([N+](=O)[O-])c1O)NO`, for which the TGI is greater than 100 µM in [1]; greater than 100 µM in [9]; greater than 100 µM in assay [2]; greater than 100 µM in assay [3]; greater than 100 µM in assay [4]; greater than 31.1 µM in [5]. For the same molecule, the TGI in [10], in assay [6], in assay [7] and in assay [8] was greater than 100 µM each time.
Turning to `COc1cccc(/C=N/[N-]C(N)=O)c1[O-].[OH3+].[Pd+2]`, the TGI in assay [1], in [9], in assay [2], in assay [3], in assay [4] and in assay [5] was greater than 100 µM throughout. Besides, the TGI in [10], in assay [6], in assay [7] and in assay [8] was greater than 100 µM each time.
On to `CC(N)=O.[Cl][Pt][Cl].[NH-]c1ccn(C2OC(CO)C(O)C2O)c(=O)n1` (configuration not stated), for which the TGI in [1], in [9], in [2], in assay [3], in [4] and in assay [5] was greater than 100 µM in each case. Further, the TGI in assay [10], in assay [6], in assay [7] and in assay [8] was greater than 100 µM throughout.
On to `CC1=CC(=O)c2c(O)c3c(c(O)c2C1=O)C1C(O)C(C3=O)C23C(=O)c4c(O)c(C)cc(O)c4C(O)=C2C(=O)CC(O)C13` (configuration not stated), for which the TGI in [1] was found to be 4.7 µM; in assay [9] it was 5.55 µM; in assay [2], 6.58 µM; in assay [3] it was 12.2 µM; in [4], 6.78 µM; in assay [5] it was 3.24 µM. For the same molecule, the TGI in [10] is 10.8 µM; in assay [6], 8.65 µM; in [7], 7.54 µM.
Take `O=C(/C=C\c1ccc(/C=C/C(=O)Nc2cccc(C3=NCCCN3)c2)cc1)Nc1cccc(C2=NCCCN2)c1`: the TGI in [1], in assay [9], in [2], in [3], in assay [4] and in [10] was greater than 100 µM throughout. For the same molecule, the TGI in [6] and in [8] was greater than 100 µM throughout.
With `Clc1cccc(C2SCc3nc4ccccc4n32)c1` (configuration not stated), the TGI in [1] is 30.8 µM; in assay [9], 28.6 µM; in [2] it was 70 µM; in assay [3] it was greater than 100 µM; in [4], 46.2 µM; in assay [5], 36.5 µM. Further, the TGI in assay [10] was greater than 100 µM; in [6], 65.1 µM; in [7], greater than 100 µM; in assay [8], 30.4 µM.
